Results on eleven compounds are retold here after the CheMixHub viscosity set.

Where “and” joins values, the source holds several entries; their conditions need not be identical. Equal values may be shown once. ± gives the uncertainty stated by the source.

For orientation: viscosity means the internal friction of a fluid under shear. Higher therefore signals sluggish flow.

`C#CC(C)(C)O`: the viscosity is 2.09 ± 0.033 mPa·s (308.15 K, 101.32 kPa); 1.775 ± 0.028 mPa·s (313.15 K, 101.32 kPa); 1.551 ± 0.025 mPa·s (318.15 K, 101.32 kPa); 1.347 ± 0.022 mPa·s (323.15 K, 101.32 kPa).
Turning to `C1CCNCC1`, the viscosity reads like this: (298.15 K, 101 kPa) 1.31 ± 0.04 mPa·s; (303.15 K, 101 kPa) 1.21 ± 0.038 mPa·s; (323.15 K, 101 kPa) 0.757 ± 0.02 mPa·s.
`CC(=O)OC(C)C`: the viscosity is 0.49 ± 0.0034 mPa·s (298.15 K, 101 kPa); 0.4342 ± 0.0031 mPa·s and 0.4323 ± 0.0096 mPa·s (308.15 K, 101 kPa).
For the compound `CC(=O)[O-].CC[NH+](CC)CC`, the viscosity (303.15 K, 101 kPa) was 19.6 ± 0.41 mPa·s and 19.64 ± 0.5 mPa·s; the viscosity (308.15 K, 101 kPa) was 16.13 ± 0.33 mPa·s and 16.13 ± 0.41 mPa·s; the viscosity (313.15 K, 101 kPa) is listed as 14.81 ± 0.31 mPa·s.
`CC(O)=S`: the viscosity (298.1 K, 101 kPa) is 0.687 ± 0.051 mPa·s and 0.687 ± 0.046 mPa·s.
For the compound `CCCC(C)O` (stereo not given), the viscosity (293.15 K, 101.33 kPa) stood at 3.376 ± 0.34 mPa·s; the viscosity (298.15 K, 100 kPa) was found to be 3.426 ± 0.14 mPa·s; the viscosity (298.15 K, 101 kPa) was 3.38 ± 0.059 mPa·s and 3.2 ± 0.13 mPa·s; the viscosity (298.15 K, 101.3 kPa) came out at 3.45 ± 0.095 mPa·s; the viscosity (303 K, 101.33 kPa) is reported as 2.677 ± 0.069 mPa·s; the viscosity (303.15 K, 101 kPa) was determined as 2.739 ± 0.084 mPa·s. Moreover, the viscosity was 2.763 ± 0.28 mPa·s and 2.888 ± 0.038 mPa·s and 2.887 ± 0.033 mPa·s (303.15 K, 101.33 kPa); 2.312 ± 0.072 mPa·s (308.15 K, 101 kPa); 2.32 ± 0.064 mPa·s (308.15 K, 101.3 kPa); 2.014 ± 0.052 mPa·s (313 K, 101.33 kPa); 1.943 ± 0.061 mPa·s (313.15 K, 101 kPa); 1.92 ± 0.053 mPa·s (313.15 K, 101.3 kPa). The same compound gave a viscosity (313.15 K, 101.33 kPa) of 2.017 ± 0.027 mPa·s; a viscosity (318.15 K, 101 kPa) of 1.674 ± 0.03 mPa·s; a viscosity (323.15 K, 101 kPa) of 1.479 ± 0.048 mPa·s; a viscosity (323.15 K, 101.33 kPa) of 1.521 ± 0.15 mPa·s.
In the case of `CCCCBr`, the viscosity is 0.6116 ± 0.013 mPa·s (295.95 K, 101 kPa); 0.606 ± 0.016 mPa·s (298.15 K, 101 kPa); 0.5621 ± 0.012 mPa·s (303.45 K, 101 kPa); 0.552 ± 0.015 mPa·s and 0.5235 ± 0.0045 mPa·s (308.15 K, 101 kPa); 0.5057 ± 0.011 mPa·s (313.25 K, 101 kPa); 0.502 ± 0.014 mPa·s (318.15 K, 101 kPa). Besides, the viscosity (323.15 K, 101 kPa) amounted to 0.476 ± 0.013 mPa·s.
As for `CCCCCCCC[n+]1ccc2ccccc2c1.O=S(=O)([N-]S(=O)(=O)C(F)(F)F)C(F)(F)F`, the viscosity runs as follows: (298.15 K, 101 kPa) 369.3 ± 25 mPa·s and 369.3 ± 14 mPa·s; (308.15 K, 101 kPa) 191 ± 8.9 mPa·s and 191 ± 5.4 mPa·s; (318.15 K, 101 kPa) 108.7 ± 3.6 mPa·s and 108.7 ± 2.2 mPa·s.
With `CCN(C=O)CC`, the viscosity by setting is: (298.15 K, 101 kPa) 1.25 ± 0.03 mPa·s; (298.15 K, 101.33 kPa) 1.254 ± 0.008 mPa·s; (298.16 K, 101 kPa) 1.139 ± 0.011 mPa·s; (308.15 K, 101 kPa) 1.03 ± 0.03 mPa·s; (323.15 K, 101 kPa) 0.86 ± 0.02 mPa·s; (323.15 K, 101.33 kPa) 0.851 ± 0.006 mPa·s.
As for `CCOC(=O)C(=O)OCC`, the viscosity (313.15 K, 101 kPa) is recorded as 1.361 ± 0.082 mPa·s and the viscosity (323.15 K, 101 kPa) is 1.154 ± 0.07 mPa·s.
On to `CC[N+](CC)(CC)CC.[OH-]`, for which the viscosity came to 4.94 ± 0.1 mPa·s (298.15 K, 100 kPa); 4.94 mPa·s (298.15 K, 101 kPa); 4.72 ± 0.1 mPa·s (303.15 K, 100 kPa); 4.72 mPa·s (303.15 K, 101 kPa); 4.43 ± 0.09 mPa·s (308.15 K, 100 kPa); 4.43 mPa·s (308.15 K, 101 kPa). Further, the viscosity runs as follows: (313.15 K, 100 kPa) 4.27 ± 0.09 mPa·s; (313.15 K, 101 kPa) 4.27 mPa·s.
